# Measured values from patent US20210038579A1, “Treatment Of Patients With Classic Fabry Disease” (Amicus Therapeutics, Inc., priority 2018, published 2021).
# Residue numbers refer to the chain shown, from its start.
# Key:
# Assay in all cases: HEK assay: α-Gal A activity in HEK-293 cell lysate with migalastat
# Type in all cases: cell-based
# [1] = molecular target: T1, α-Gal A mutant form p.Asp322Glu (c.966 C > A) (Homo sapiens, UniProt P06280, D322E)
# T1 construct: expressed in transfected cells; host or cells: HEK-293
# T1 sequence (P06280 32-429 D322E): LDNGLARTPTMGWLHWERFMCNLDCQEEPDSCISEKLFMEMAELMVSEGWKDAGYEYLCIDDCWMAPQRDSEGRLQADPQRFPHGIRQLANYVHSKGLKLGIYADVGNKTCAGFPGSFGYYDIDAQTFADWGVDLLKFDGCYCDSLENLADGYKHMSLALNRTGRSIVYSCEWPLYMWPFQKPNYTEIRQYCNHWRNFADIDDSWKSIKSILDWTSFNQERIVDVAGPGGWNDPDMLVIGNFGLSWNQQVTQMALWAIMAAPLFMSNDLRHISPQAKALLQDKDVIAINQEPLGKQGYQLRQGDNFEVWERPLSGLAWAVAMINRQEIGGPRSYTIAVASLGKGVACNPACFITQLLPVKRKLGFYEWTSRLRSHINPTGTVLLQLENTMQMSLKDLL
# In short: (§1)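 HEK-293 cells are transfected transiently with cDNA for each missense or small in-frame indel α-Gal A mutant. They are cultured ±migalastat across 17 nM to 1 mM over 4 to 5 days, after which lysate enzyme is quantified fluorogenically (4-MU-α-Gal) or by immunoblot.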
# [2] = molecular target: T2, α-Gal A mutant form p.Gly144Val (c.431 G > T) (Homo sapiens, UniProt P06280, G144V)
# T2 construct: expressed in transfected cells; host or cells: HEK-293
# T2 sequence (P06280 32-429 G144V): T1 sequence (P06280 32-429 D322E) with G113V, E291D
# In short: as §1
# [3] = molecular target: T3, α-Gal A mutant form p.Gly85Asp (c.254 G > A) (Homo sapiens, UniProt P06280, G85D)
# T3 construct: expressed in transfected cells; host or cells: HEK-293
# T3 sequence (P06280 32-429 G85D): T1 sequence (P06280 32-429 D322E) with G54D, E291D
# In short: as §1
# [4] = molecular target: T4, α-Gal A mutant form p.Ile253Thr (c.758 T > C) (Homo sapiens, UniProt P06280, I253T)
# T4 construct: expressed in transfected cells; host or cells: HEK-293
# T4 sequence (P06280 32-429 I253T): T1 sequence (P06280 32-429 D322E) with I222T, E291D
# In short: as §1
# [5] = molecular target: T5, α-Gal A mutant form p.Phe 295Cys (c.884 T > G) (Homo sapiens, UniProt P06280, F295C)
# T5 construct: expressed in transfected cells; host or cells: HEK-293
# T5 sequence (P06280 32-429 F295C): T1 sequence (P06280 32-429 D322E) with F264C, E291D
# In short: as §1
# [6] = +10 μM migalastat, HEK-293 cell lysate, mean ± SEM, n = 20
# [7] = HEK293, 10 μM migalastat minus baseline, read-out: Absolute increase at 10 μM (% WT)
smiles,measurement,setting,value
OC[C@H]1NC[C@H](O)[C@@H](O)[C@H]1O [migalastat],α-Gal A activity at 10 μM (fold over baseline),[1]; 10 μM migalastat,3.98 fold over baseline
same,+Migalastat α-Gal A activity,[1]; [6],9554 ± 667 nmol/mg/h
same,+Migalastat α-Gal A activity % WT,[1]; [6],26.8 ± 1.3 % WT
same,activation at 10 µM,[1]; [7],20%
same,α-Gal A activity at 10 μM (fold over baseline),[2]; 10 μM migalastat,11.58 fold over baseline
same,+Migalastat α-Gal A activity,[2]; [6],2924 ± 335 nmol/mg/h
same,+Migalastat α-Gal A activity % WT,[2]; [6],9.2 ± 1.2 % WT
same,activation at 10 µM,[2]; [7],8.4%
same,α-Gal A activity at 10 μM (fold over baseline),[3]; 10 μM migalastat,5.10 fold over baseline
same,+Migalastat α-Gal A activity,[3]; [6],4534 ± 135 nmol/mg/h
same,+Migalastat α-Gal A activity % WT,[3]; [6],14.3 ± 0.9 % WT
same,activation at 10 µM,[3]; [7],11.6%
same,α-Gal A activity at 10 μM (fold over baseline),[4]; 10 μM migalastat,2.07 fold over baseline
same,+Migalastat α-Gal A activity,[4]; [6],23417 ± 1077 nmol/mg/h
same,+Migalastat α-Gal A activity % WT,[4]; [6],80.2 ± 5.9 % WT
same,activation at 10 µM,[4]; [7],41.3%
same,α-Gal A activity at 10 μM (fold over baseline),[5]; 10 μM migalastat,4.22 fold over baseline
same,+Migalastat α-Gal A activity,[5]; [6],5051 ± 190 nmol/mg/h
same,+Migalastat α-Gal A activity % WT,[5]; [6],14.5 ± 0.6 % WT
same,activation at 10 µM,[5]; [7],11.1%
